Experiments:
mice antibody formation = assay: Mice antibody formation in vivo (SRBC immunisation, serum haemolysis HC50); design: species or system BALB/c mice
Method: The mice were randomized into three groups: peptide (200 μg/kg/day), Cyclosporine A (10 mg/kg/day), and saline (0.5 ml). Each group contained 12 mice, 6 female and 6 male. The test substances were dissolved in 0.5 ml saline and applied intraperitoneally once per day for 20 consecutive days.
Sheep red blood cells (SRBC) were resuspended with saline to 2% (v/v) and 0.2 ml of the resuspended cell solution was applied intraperitoneally to each mouse on day 16th of the test substance administration. On the day after the last test substance administration, blood was collected from the inner canthus and left at room temperature for one hour for serum exudation. After centrifugation at 200 g for 10 minutes, the serum was diluted by 200 times with normal saline.
For the preparation of the complement working solution, 10 volumes of fresh Cavy serum was added into one volume of centrifuge-packed SRBC. […]
For assay of the mice antibody titer, 0.2 ml of 1% SRBC suspension was added to 1 ml diluted ice-cold mouse serum from each mouse. […] To 1 ml of this supernatant, 3 ml Drabkin solution was added and left at room temperature for 10 minutes, and then the OD540nm was measured. The reference lysis-50 reading at OD540nm was determined by following the exact procedure as the sample, except replacing half of the SRBC with saline and without the centrifugation removal of the unlysed SRBC. […]

Masugi nephritis rabbits [1] = assay: Masugi nephritis in rabbits: urine protein; assay type: in vivo; conditions: for proteinuria Week 0: saline treatment 11.72 ± 3.18; for proteinuria Week 1: saline treatment 122 ± 91; for proteinuria Week 2: saline treatment 160 ± 138; for proteinuria Week 3: saline treatment 145 ± 33; for proteinuria Week 4: saline treatment 157 ± 71
Method: (§1) Twenty-two healthy rabbits were randomized into 5 groups: peptide (107.3 μg/kg/day and 58.5 μg/kg/day, 4 rabbits per group), dexamethasone (0.1 mg/kg/day, 4 rabbits), saline treatment (1 ml/day, 7 rabbits), and normal healthy (3 rabbits). Before the establishment of a disease state in the rabbits, measurements of serum BUN, creatinine, and urine protein over 24 hours were taken for each rabbit. If there was no abnormality in these measurements, the Masugi nephritis model was established in experimental rabbits by intravenous injection of sheep anti-rabbit renal cortex antiserum via the auricular vein, 0.5 ml per injection, one injection every 30 minutes, for a total of 4 injections per rabbit. The normal healthy (control) rabbit group was injected with saline in the same manner. Intravenous administration of the test substances via the auricular vein was started on the day after the injection of the antiserum, once per day, 1 ml per injection, for 30 consecutive days.
Urine was collected from each rabbit over a 24 hour period once per week and the protein content determined by the sulfosalicylic acid method.
(§2) Statistical significance was determined by the t-test of the SPSS software.

Masugi nephritis rabbits [2] = assay: Masugi nephritis in rabbits: clearance of sheep anti-rabbit renal cortex IgG antibody (glomerular immunofluorescence); assay type: in vivo; conditions: saline treatment 8.7 ± 0.9
Method: as §1, with “Before” for “Twenty-two healthy rabbits were randomized into 5 groups: peptide (107.3 μg/kg/day and 58.5 μg/kg/day, 4 rabbits per group), dexamethasone (0.1 mg/kg/day, 4 rabbits), saline treatment (1 ml/day, 7 rabbits), and normal healthy (3 rabbits). Before”
For observation of the effects of peptides on the clearance of sheep anti-rabbit renal cortex IgG antibody from Masugi nephritis rabbits, on the day after the last test substance administration, the rabbits were sacrificed by suffocation and the right kidney was extirpated, freeze-edged and then immunofluorescently stained for the presence of sheep IgG. The fluorescence-positive area of each glomerulus was counted. Thirty glomeruli per rabbit were examined and the average positive area per glomerulus was calculated.
as §2

mice T-lymphocyte [3] = assay: Mice T-lymphocyte transformation in vivo (i.p. dosing 20 days, spleen cells + ConA, MTT, stimulation index); design: species or system BALB/c mice
Method: Animals were randomized into two peptide groups (200 μg/kg/day and 50 μg/kg/day), Cyclosporine A group (10 mg/kg/day), and saline group (0.5 ml/day). Each group contained 10 mice, in which half were female and half were male. All test substances were dissolved in 0.5 ml saline and administered intraperitoneally once per day for 20 days. T-lymphocyte transformation and NK cell activity were examined on the day immediately following the last injection. The day after the last test substance administration, the mice were sacrificed by cervical dislocation. The spleens were isolated aseptically and manually dispersed in 10% FBS RPMI-1640 solution using an injection needle. The dispersed cell suspension was further sieved through a 100 gauge 150 μm diameter stainless steel sieve and adjusted to 4×10^6/ml. The cell suspensions were inoculated onto a 96 wells cell culture plate, 100 μl/well with the following design. Assay wells: 100 μl cell suspension+100 μl ConA Control wells: 100 μl cell suspension+100 μl RPMI-1640 Four assay and four control wells were set up for each animal. The plates were incubated at 37° C., 5% CO2 for 68 hours. MTT was then added and the plates read at OD 570 nm referenced at 630 nm with ELISA reader. Stimulation Index SI (%)=(assay well OD/control well OD)×100%.

mice T-lymphocyte [4] = assay: Mice T-lymphocyte transformation induced by ConA in vitro (spleen cells, MTT); assay type: cell-based, BALB/c mice; conditions: for OD: Table 2, ConA 5 μg/ml, 68 hrs
Method: The spleens from healthy mice were isolated aseptically and manually dispersed in 10% FBS RPMI-1640 solution using an injection needle. The dispersed cell suspension was further sieved through a 100-gauge 150 μm diameter stainless steel sieve. The spleen cell suspension was adjusted to a density of 4×10^6/ml and was aliquoted onto 96-well cell culture plates at 100 μl/well. Peptides were dissolved in plain RPMI-1640. The design of the groupings was as given below.
Peptide group: 100 μl working peptide solution+75 μl spleen cell suspension+25 μl ConA working solution.
ConA control group: 100 μl RPMI-1640+75 μl spleen cell suspension+25 μl ConA working solution.
Negative control group: 125 μl RPMI-1640+75 μl spleen cell suspension.
The final concentration of ConA in the well was 5 μg/ml. The final concentrations of peptides in the well were 80 μg/ml, 16 μg/ml, 3.2 μg/ml, 0.64 μg/ml, and 0.128 μg/ml. Each peptide group contained three parallel wells, and eight or twelve wells for the control groups. The cells were incubated for 68 hrs at 37° C., 5% CO2. MTT method was used to obtain a reading of OD570 nm of each well referenced at 630 nm on an ELISA reader.

Heymann nephritis rats = assay: Heymann nephritis in rats: 24 hr urine protein; assay type: in vivo, Wistar rats
Method: 20 healthy Wistar rats were randomized into two groups: peptide (200 μg/kg/day) and saline treatment (2 ml/day). Two ml of antigen were intraperitoneally injected to each rat, once every two weeks, for a total of 5 rounds of injection. Test substance administration by intraperitoneal injection was started on the day after the third immunization, once per day until the end of the experiment.
Quantification of uriner protein began at the third week of model establishment. A urine sample was collected from each rat over a 24 hour period once every […] the urine protein content quantified by the sulfosalicylic acid method.
Sample values were compared by t-test using SPSS software.

PLNPK [CMS-010.26]
HC50 (mice antibody formation; 200 μg/kg/day i.p. 20 days, SRBC day 16, saline 167.6 ± 21.5): 141.3 ± 29.3
Effect on mice antibody formation in vivo (mice antibody formation; at suitable dosage, vs saline control P<0.05): suppress
proteinuria Week 0 (Masugi nephritis rabbits [1]; 58.5 μg/kg/day i.v.): 9.53 ± 4.64 mg/dL
proteinuria Week 1 (Masugi nephritis rabbits [1]; 58.5 μg/kg/day i.v.): 77 ± 62 mg/dL
proteinuria Week 2 (Masugi nephritis rabbits [1]; 58.5 μg/kg/day i.v.): 150 ± 123 mg/dL
proteinuria Week 3 (Masugi nephritis rabbits [1]; 58.5 μg/kg/day i.v.): 20 ± 12 mg/dL
proteinuria Week 4 (Masugi nephritis rabbits [1]; 58.5 μg/kg/day i.v.): 36 ± 16 mg/dL
proteinuria Week 0 (Masugi nephritis rabbits [1]; 107.3 μg/kg/day i.v.): 9.84 ± 4.29 mg/dL
proteinuria Week 1 (Masugi nephritis rabbits [1]; 107.3 μg/kg/day i.v.): 187 ± 184 mg/dL
proteinuria Week 2 (Masugi nephritis rabbits [1]; 107.3 μg/kg/day i.v.): 114 ± 145 mg/dL
proteinuria Week 3 (Masugi nephritis rabbits [1]; 107.3 μg/kg/day i.v.): 26 ± 24 mg/dL
proteinuria Week 4 (Masugi nephritis rabbits [1]; 107.3 μg/kg/day i.v.): 28 ± 32 mg/dL
Effect on severity of proteinuria in Masugi nephritis rabbits (Masugi nephritis rabbits [1]; vs saline treatment control P<0.05): decrease
Positive area count/glomerulus (Masugi nephritis rabbits [2]; 58.5 μg/kg/day i.v. 30 days): 6.3 ± 1.4
Positive area count/glomerulus (Masugi nephritis rabbits [2]; 107.3 μg/kg/day i.v. 30 days): 5.6 ± 1.2
SI (mice T-lymphocyte [3]; Table 4, 200 μg/kg/day i.p. 20 days, saline 3.63 ± 0.69): 2.19 ± 0.59
Effect on mice T-lymphocyte transformation in vivo (mice T-lymphocyte [3]; at suitable dosages, vs saline control P<0.05): suppress
OD (mice T-lymphocyte [4]; peptide 0.128 μg/ml, ConA control 0.467 ± 0.043): 0.354 ± 0.017
OD (mice T-lymphocyte [4]; peptide 0.64 μg/ml, ConA control 0.467 ± 0.043): 0.348 ± 0.025
OD (mice T-lymphocyte [4]; peptide 3.2 μg/ml, ConA control 0.467 ± 0.043): 0.332 ± 0.015
OD (mice T-lymphocyte [4]; peptide 16 μg/ml, ConA control 0.467 ± 0.043): 0.356 ± 0.006
OD (mice T-lymphocyte [4]; peptide 80 μg/ml, MTT OD570 nm ref 630 nm, ConA control 0.467 ± 0.043, negative control 0.134 ± 0.011): 0.353 ± 0.016
Effect on mice T-lymphocyte transformation induced by ConA in vitro (mice T-lymphocyte [4]; at suitable concentrations, vs ConA positive control P<0.05): suppress
24 hr. urine protein concentration Week 3 (Heymann nephritis rats; 200 μg/kg/day i.p., Week 3, saline treatment 4.1 ± 1.3): 6.2 ± 2.3 mg/dL
24 hr. urine protein concentration Week 5 (Heymann nephritis rats; 200 μg/kg/day i.p., Week 5, saline treatment 3.1 ± 0.8): 3.1 ± 1.4 mg/dL
24 hr. urine protein concentration Week 7 (Heymann nephritis rats; 200 μg/kg/day i.p., Week 7, saline treatment 10.9 ± 2.8): 3.9 ± 1.6 mg/dL
24 hr. urine protein concentration Week 9 (Heymann nephritis rats; 200 μg/kg/day i.p., Week 9, saline treatment 12.6 ± 1.2): 3.8 ± 2.2 mg/dL
Effect on severity of proteinuria in Heymann nephritis rats (Heymann nephritis rats; at suitable dosage, vs saline treatment P<0.05): decrease

Reference: patent US7718764B2, “Biologically active peptide [sequence] derivatives” (CMS Peptides Patent Holding Company Limited, priority 2004, dated 2010)
